Experimental data as given in the NIST ThermoML archive (doi:10.1021/acs.jced.7b00344).
Numbers after ± are expanded uncertainties.

Test: xn = mol fraction of the nth substance listed
Settings: 101.3 kPa, Liquid; for viscosity: Capillary tube (Ostwald / Ubbelohde) method; for mass density: Pycnometric method

CC(=O)CCCCl [1-chloro-4-pentanone] + CC(=O)C1CC1
Settings	mass density, 303.15 K [kg/m3]	mass density, 313.15 K [kg/m3]	mass density, 323.15 K [kg/m3]	mass density, 333.15 K [kg/m3]	viscosity, 303.15 K [mPa·s]	viscosity, 313.15 K [mPa·s]	viscosity, 323.15 K [mPa·s]	viscosity, 333.15 K [mPa·s]
x2 = 0	1051.3 ± 1.1	1041.1 ± 1.1	1031.2 ± 1.1	1020.8 ± 1.1	1.582 ± 0.033	1.318 ± 0.028	1.078 ± 0.023	0.9667 ± 0.02
x2 = 0.0998	1039.1 ± 1.1	1029.1 ± 1.1	1019.4 ± 1.1	1009.3 ± 1.1	1.427 ± 0.03	1.21 ± 0.026	1.03 ± 0.022	0.8933 ± 0.019
x2 = 0.2009	1026.1 ± 1.1	1016.3 ± 1.1	1006.7 ± 1.1	996.8 ± 1.1	1.223 ± 0.026	1.043 ± 0.022	0.9043 ± 0.019	0.7927 ± 0.017
x2 = 0.3004	1012.5 ± 1.1	1002.9 ± 1.1	993.4 ± 1.1	983.6 ± 1.1	1.135 ± 0.024	0.9766 ± 0.021	0.8507 ± 0.018	0.7484 ± 0.016
x2 = 0.4002	998 ± 1	988.5 ± 1.1	979.1 ± 1.1	969.5 ± 1.1	1.07 ± 0.023	0.9252 ± 0.02	0.8063 ± 0.017	0.7131 ± 0.015
x2 = 0.4999	982.8 ± 1.1	973.3 ± 1.1	963.9 ± 1.1	954.4 ± 1.1	0.955 ± 0.02	0.8296 ± 0.018	0.7322 ± 0.015	0.6517 ± 0.014
x2 = 0.5999	966.5 ± 1.1	957.1 ± 1.1	947.7 ± 1.1	938.3 ± 1.1	0.8757 ± 0.018	0.7715 ± 0.016	0.6787 ± 0.014	0.6086 ± 0.013
x2 = 0.6999	948.9 ± 1.1	939.7 ± 1.1	930.4 ± 1.1	921.1 ± 1.1	0.839 ± 0.018	0.7366 ± 0.016	0.649 ± 0.014	0.5818 ± 0.012
x2 = 0.7999	930.2 ± 1.1	921 ± 1	911.7 ± 1.1	902.6 ± 1.2	0.7363 ± 0.016	0.6493 ± 0.014	0.5783 ± 0.012	0.5207 ± 0.011
x2 = 0.8999	910.5 ± 1.1	901.1 ± 1.1	891.6 ± 1.1	882.4 ± 1.2	0.7027 ± 0.015	0.6216 ± 0.013	0.5513 ± 0.012	0.4968 ± 0.011

CC(=O)C1CCOC1=O (stereo not given) [2-acetylbutyrolactone] + CC(=O)C1CC1
Settings	mass density, 303.15 K [kg/m3]	mass density, 313.15 K [kg/m3]	mass density, 323.15 K [kg/m3]	mass density, 333.15 K [kg/m3]	viscosity, 303.15 K [mPa·s]	viscosity, 313.15 K [mPa·s]	viscosity, 323.15 K [mPa·s]	viscosity, 333.15 K [mPa·s]
x2 = 0	1185.7 ± 1.1	1178.3 ± 1.1	1168.9 ± 1.1	1159.4 ± 1.1	3.794 ± 0.079	3.424 ± 0.072	3.067 ± 0.064	2.719 ± 0.057
x2 = 0.0998	1161.9 ± 1.2	1154.3 ± 1.2	1144.9 ± 1.2	1135.6 ± 1.2	3.195 ± 0.068	2.889 ± 0.061	2.609 ± 0.055	2.33 ± 0.049
x2 = 0.2009	1136.2 ± 1.2	1128.5 ± 1.2	1119.1 ± 1.2	1109.7 ± 1.2	2.633 ± 0.056	2.369 ± 0.05	2.118 ± 0.045	1.892 ± 0.04
x2 = 0.3004	1109.7 ± 1.2	1101.8 ± 1.2	1092.3 ± 1.2	1082.9 ± 1.2	2.164 ± 0.046	1.945 ± 0.042	1.748 ± 0.037	1.571 ± 0.034
x2 = 0.4002	1081.9 ± 1.2	1073.7 ± 1.2	1064.2 ± 1.2	1054.8 ± 1.2	1.786 ± 0.038	1.599 ± 0.034	1.415 ± 0.03	1.278 ± 0.027
x2 = 0.4999	1052.8 ± 1.2	1044.3 ± 1.2	1034.8 ± 1.2	1025.4 ± 1.3	1.452 ± 0.031	1.306 ± 0.028	1.154 ± 0.025	1.025 ± 0.022
x2 = 0.5999	1022.5 ± 1.2	1013.8 ± 1.2	1004.2 ± 1.3	994.8 ± 1.3	1.198 ± 0.026	1.054 ± 0.023	0.9344 ± 0.02	0.8398 ± 0.018
x2 = 0.6999	991.1 ± 1.3	982.1 ± 1.3	972.4 ± 1.3	963.1 ± 1.3	0.9813 ± 0.021	0.8642 ± 0.019	0.778 ± 0.017	0.6958 ± 0.015
x2 = 0.7999	958.3 ± 1.3	949.2 ± 1.3	939.6 ± 1.3	930.2 ± 1.3	0.783 ± 0.017	0.6912 ± 0.015	0.639 ± 0.014	0.5704 ± 0.012
x2 = 0.8999	924.5 ± 1.3	915.5 ± 1.3	905.9 ± 1.3	896.5 ± 1.3	0.6546 ± 0.014	0.5854 ± 0.013	0.5436 ± 0.012	0.4933 ± 0.011
